Data published in patent US11795460B2, “Compositions and methods for TTR gene editing and treating ATTR amyloidosis” (Intellia Therapeutics, Inc., priority 2017, dated 2023).

How the values were obtained:
Assay type in all cases: cell-based, human
[1] = test system: TTR; assay: TTR editing in HUH7 cells transfected with Spy Cas9 mRNA and dgRNAs (Table 5); conditions: HUH7 cells co-transfected with Spy Cas9 mRNA (SEQ ID NO:2) and dgRNAs
In short: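 HUH7 cells were transfected sequentially with Spy Cas9 mRNA (100 ng) then crRNA and tracer RNA (25 nM each) by lipofection. Genomic DNA was collected 24, 48 or 72 h later. Target site was PCR-amplified and NGS-sequenced, and percent editing was taken as reads with indels or substitutions over total reads.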

[2] = test system: TTR; assay: TTR editing in HepG2 cells transfected with Spy Cas9 mRNA and dgRNAs (Table 6); conditions: HepG2 cells co-transfected with Spy Cas9 mRNA (SEQ ID NO:2) and dgRNAs
In short: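 HepG2 cells were transfected sequentially by lipofection with Spy Cas9 mRNA (100 ng), then crRNA plus tracer RNA (25 nM each), and harvested at 24, 48 or 72 h. Editing was measured by amplicon NGS at the TTR target site as the fraction of reads with indels or substitutions.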

[3] = test system: off-target genomic sites; assay: Off-target oligo insertion based assay in HEK293_Cas9 cells, dgRNAs and sgRNAs (Tables 23, 24); conditions: Table 23; TTR dgRNAs in HekCas9 cells, oligo insertion based assay
In short: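 In HEK293 cells constitutively expressing Spy Cas9, crRNA (15 nM) plus trRNA (15 nM), or modified sgRNAs, were lipofected with donor oligo (10 nM). Genomic DNA was collected at 24 h, and oligo-insertion libraries were sequenced on MiSeq/HiSeq to map potential off-target cleavage sites.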

Sequence | Avg % Deletion [1] [%] | Avg % Edit [1] [%] | Avg % Insert [1] [%] | Avg % Deletion [2] [%] | Avg % Edit [2] [%] | Avg % Insert [2] [%] | # Sites (off-target integration sites detected) [3]
UGUAGAAGGGAUAUACAAAG (tested as dual guide RNA, chemistry not given here) [CR003365] | 43.82 | 60.68 | 17.77 | 11.11 | 46.88 | 35.77 | 3
AAAGUUCUAGAUGCUGUCCG (tested as dual guide RNA, chemistry not given here) [CR003346] | 6.97 | 18.07 | 13.17 | 0.05 | 0.13 | 0.07 | 0
AAAUAGACACCAAAUCUUAC (tested as dual guide RNA, chemistry not given here) [CR003366] | 50.32 | 69.98 | 20.77 | 8.49 | 54.69 | 46.20 | 1
GAAAGGCUGCUGAUGACACC (tested as dual guide RNA, chemistry not given here) [CR003352] | 32.79 | 39.68 | 7.62 | 4.77 | 44.28 | 39.51 | 2
AAAGGCUGCUGAUGACACCU (tested as dual guide RNA, chemistry not given here) [CR003353] | 62.87 | 69.18 | 7.73 | 3.68 | 60.40 | 56.71 | 2
CUGCUCCUCCUCUGCCUUGC (tested as dual guide RNA, chemistry not given here) [CR003335] | 27.57 | 31.95 | 4.62 | 4.23 | 37.19 | 32.96 | 0
AGCCUUUCUGAACACAUGCA (tested as dual guide RNA, chemistry not given here) [CR003351] | 27.49 | 63.51 | 36.87 | 25.57 | 57.54 | 31.98 | 1
UGAAUCCAAGUGUCCUCUGA (tested as dual guide RNA, chemistry not given here) [CR005303] | – | – | – | 1.08 | 21.63 | 20.55 | 1
CCCCUACUCCUAUUCCACCA (tested as dual guide RNA, chemistry not given here) [CR003385] | – | – | – | 7.62 | 53.94 | 46.32 | 3
ACGUGUCUUCUCUACACCCA (tested as dual guide RNA, chemistry not given here) [CR005302] | – | – | – | 2.29 | 33.21 | 30.93 | 1
GUCACAGAAACACUCACCGU (tested as dual guide RNA, chemistry not given here) [CR005301] | – | – | – | 3.65 | 37.04 | 33.39 | 0
